Source: patent US11819498B2, “Methods and compositions for treating autophagy related disease states and conditions utilizing AMPK activation” (UNM RAINFOREST INNOVATIONS, priority 2019, dated 2023)
Where a SMILES comes first, the peptide text is derived from it. The star is where a group is joined. βNA = c1ccc2cc(N*)ccc2c1

How the values were obtained:
AMPK = experiment: Western blot of AMPK activation upon lysosomal damage by damaging agents; type: cell-based; details: HEK293T cells, time and dose dependent, Western blot (FIGS. 4SE-F)
Protocol: (§1) Western blotting and co-immunoprecipitation (co-IP) were performed as described previously (Chauhan et al., 2016). For TAK1 inhibition, the cells were treated with TAK1 inhibitor (5Z-oxozeanol) 1 h prior to LLOMe treatment. For co-IP, cells were transfected with plasmids as indicated in figures and lysed in NP-40 buffer containing protease inhibitor cocktail and PMSF. Lysates were incubated with antibodies at 4° C. for 4 h followed by incubation with protein G Dynabeads for 2 h at 4° C. Beads were washed three times with PBS and boiled with SDS containing sample buffer, samples were processed for immunoblotting to analyze the interactions between immunoprecipitated proteins.

ALIX puncta = ALIX puncta by high content microscopy in THP-1 cells; type: cell-based; details: 250 μM metformin 2 h or 250 μM LLOMe 1 h (FIG. 5SF)
Protocol: (§2) The cells were plated in 96 well plates on day 1 and were treated on day 2, followed by fixation in 4% paraformaldehyde for 5 min. After fixation, cells were washed twice with 1×PBS and were then permeabilized with 0.1% saponin in 3% Bovine serum albumin (BSA) for 30 min. The cells were then incubated with primary antibodies O/N at 4° C. On day3, the cells were washed twice with 1×PBS and incubated with secondary antibodies for 1 h followed by 5 min incubation with Hoechst 33342. High content microscopy with automated image acquisition and quantification was carried out using a Cellomics HCS scanner and iDEV software (ThermoFisher Scientific). Automated epifluorescence image collection was performed for a minimum of 500 cells per well. Epifluorescence images were machine analyzed using preset scanning parameters and object mask definitions. Hoechst 33342 staining was used for autofocus and to automatically define cellular outlines based on background staining of the cytoplasm. Primary objects were cells, and regions of interest (ROI) or targets were algorithm-defined by shape/segmentation, maximum/minimum average intensity, total area and total intensity, etc., to automatically identify puncta or other profiles within valid primary objects. All data collection, processing (object, ROI, and target mask assignments) and analyses were computer driven independently of human operators.

autophagy = details: cited studies; cited from earlier work
AMPKα1 on lysosomes = experiment: LysoIP lysosome purification and immunoblot; type: cell-based; details: HEK293T cells, 1 mM LLOMe 30 min, LysoIP (FIG. 6B)
Protocol: Stable LysoIP cells were produced, by utilizing lentiviruses constructs from David M. Sabatini Lab (White Head Institute). HEK293T cells were transfected with pLJC5-TMEM192-3xHA or pLJC5-TMEM192-2XFLAG constructs in combination with pCMV-VSV-G and psPAX2 packaging plasmids, 60 h after transfection, the supernatant containing lentiviruses was collected and centrifuged to remove cells and then frozen at −80° C. To establish LysoIP stably expressing cell lines, HEK293T, Huh7 or Huh7 Gal9^KO cells were plated in […] in DMEM with 10% FBS and infected with 500 μL of virus-containing media overnight followed by addition of 1 μg/mL puromycin for selection. Cells were plated in 15 cm^2 culture plates and were used at 90% confluency for each LysoIP. Cells with or without 1 mM LLOMe treatment were quickly rinsed twice with PBS and then scraped in 1 mL of KPBS (136 mM KCl, 10 mM KH2PO4, pH7.25 was adjusted with KOH) and centrifuged at 3000 rpm for 2 min at 4° C. Pelleted cells were resuspended in 950 μL KPBS and reserved 25 μL for further processing of the whole-cell lysate. The remaining cells were gently homogenized with 20 strokes of a 2 mL homogenizer. The homogenate was then centrifuged at 3000 rpm for 2 min at 4° C. and the supernatant was incubated with 100 μL of KPBS prewashed anti-HA magnetic beads (ThermoFisher) on a gentle rotator shaker for 3 min. […]

[1] = system: Gal9 complexes with AMPK and TAK1; experiment: APEX2-Gal9 proximity biotinylation and co-IP after LLOMe; type: cell-based
Protocol: as §1

AMPKα1 = experiment: Western blot of Huh7 cells treated with TAK1 inhibitor and LLOMe; type: cell-based; details: TAK1 inhibitor 1 h prior to 1 mM LLOMe 30 min
Protocol: as §1

TAK1 = experiment: Western blot of HeLa cells treated with TAK1 inhibitor and LLOMe; type: cell-based; details: 1 mM LLOMe 30 min (FIG. 5C)
Protocol: as §1

LC3 = LC3 response in Huh7 and HeLa cells treated with TAK1 inhibitor and LLOMe; type: cell-based; details: with LLOMe (FIG. 5C)
Protocol: as §1

ubiquitin puncta = experiment: Ubiquitin puncta by high content microscopy in THP-1 cells; type: cell-based; details: 250 μM metformin 2 h compared with 250 μM LLOMe 1 h (FIG. 5SC)
Protocol: as §2

Gal8 puncta = Gal8 puncta by high content microscopy in THP-1 cells; type: cell-based; details: 250 μM for 2 h, HCM (FIG. 5SB)
Protocol: as §2

Gal9 puncta = Gal9 puncta by high content microscopy in metformin-treated cells; type: cell-based
Protocol: as §2

[2] = system: LysoTracker Red staining of acidified compartments such as lysosomes; experiment: LysoTracker assay in THP-1 cells; type: cell-based; details: 250 μM for 2 h (FIG. 5SD)
Protocol: Prepare fresh LysoTracker Staining Solution (2 μL LysoTracker in 1 mL medium). Add 10 μL LysoTracker Staining Solution to no treatment, LLOMe treated or Metformin treated THP-1 cells in 96 wells for total 100 μL per well and incubate at 37° C. for 30 min protected from light. Rinse gently by 1×PBS and fix in 4% Paraformaldehyde for 2 min. Wash once by 1×PBS and blot with Hoechst 33342 for 2 min before detecting by high content microscopy.

LC3 puncta = LC3 puncta by high content microscopy in THP-1 cells; type: cell-based; details: 250 μM metformin 2 h, compared with LLOMe (FIG. 7A)
Protocol: as §2

Br.COC(=O)[C@H](CC(C)C)NC(=O)[C@@H](N)CC(C)C [LLOMe, Leu-Leu methyl ester hydrobromide]
AMPK activation upon lysosomal damage (AMPK): activated
ALIX puncta response (ALIX puncta): a robust response
autophagy induction (autophagy): has been shown to induce autophagy
AMPKα1 on purified lysosomes (AMPKα1 on lysosomes): enrichment of AMPKα1 on lysosomes
association between AMPK and Gal9 ([1]; APEX2-Gal9 proximity biotinylation, 30 min of exposure (FIG. 4SA)): increased association
mCherry-Gal9 association with GFP-TAK1 ([1]; HeLa Flp-In Gal9 Tet-ON cells, 30 min of treatment (FIG. 4SB)): A similar increase

NCC(=O)N[C@@H](Cc1ccccc1)C(=O)Nc1ccc2ccccc2c1 [GPN, Gly-Phe β-naphthylamide] (H-Gly-Phe-βNA)
AMPK activation upon lysosomal damage (AMPK): activated

COc1cc(O)c2c(c1)/C=C/C[C@H](O)[C@H](O)C(=O)/C=C\C[C@H](C)OC2=O [5ZO, (5-Z)-7-oxozeaenol]
AMPKα1 activation upon lysosomal damage (AMPKα1): prevented AMPKα1 activation
TAK1 activation with LLOMe (TAK1): suppressed TAK1 activation
phosphorylation of AMPK substrate ACC (pS79) (TAK1): inhibition of phosphorylation
phosphorylation of AMPKα1 (pT172) (TAK1): inhibition of phosphorylation
LC3 response (LC3): reduced the LC3 response

CN(C)C(=N)N=C(N)N [metformin]
ubiquitination response (ubiquitin puncta) (ubiquitin puncta): a ubiquitination response albeit of a lesser magnitude than when applying an overt lysosomal damaging agent LLOMe
ALIX puncta response (ALIX puncta): a milder but significant response
puncta stained for Gal8 (Gal8 puncta): an increase in puncta stained for Gal8
response of Huh7 or 293T cells to metformin (Gal9 puncta; Huh7 or 293T cells): did not respond
lysosomal damage response, Gal9 puncta formation (Gal9 puncta; THP-1 cells, 250 μM for 2 h, HCM (FIG. 5SB)): lysosomal damage response by detecting Gal9 puncta formation
LysoTracker Red staining [2]: a decrease in staining
LC3 response (average area of LC3 puncta per cell) (LC3 puncta): a similar LC3 response
